PubChem BioAssay AID1259407 (Chemical Carcinogenesis Research Information System (CCRIS), 2018)
Calls of active or inactive are those of the source. The rule behind the calls is not given here.

System: CCRIS mutagenicity, Ames/micronucleus/aberration tests
Test: CCRIS mutagenicity studies
[1] = Test System: AMES SALMONELLA TYPHIMURIUM, Strain/Indicator: TA98, Metabolic Activation: NONE, Method: PREINCUBATION
[2] = Test System: AMES SALMONELLA TYPHIMURIUM, Strain/Indicator: TA100, Metabolic Activation: NONE, Method: PREINCUBATION
[3] = Test System: AMES SALMONELLA TYPHIMURIUM, Strain/Indicator: TA1535, Metabolic Activation: NONE, Method: PREINCUBATION
[4] = Test System: AMES SALMONELLA TYPHIMURIUM, Strain/Indicator: TA1537, Metabolic Activation: NONE, Method: PREINCUBATION
[5] = Test System: AMES SALMONELLA TYPHIMURIUM, Strain/Indicator: TA98, Metabolic Activation: NONE, Method: STANDARD PLATE
[6] = Test System: AMES SALMONELLA TYPHIMURIUM, Strain/Indicator: TA100, Metabolic Activation: NONE, Method: STANDARD PLATE

Question: What does the source list for `Oc1cc(Cl)ccc1Cl`?
Answer: mutagenic call (Test System: AMES SALMONELLA TYPHIMURIUM, Strain/Indicator: TA98, Metabolic Activation: HAMSTER, LIVER, S-9, AROCLOR 1254, Method: PREINCUBATION): inactive; negative; mutagenic call [1]: inactive; negative; mutagenic call (Test System: AMES SALMONELLA TYPHIMURIUM, Strain/Indicator: TA98, Metabolic Activation: RAT, LIVER, S-9, AROCLOR 1254, Method: PREINCUBATION): inactive; negative; mutagenic call (Test System: AMES SALMONELLA TYPHIMURIUM, Strain/Indicator: TA100, Metabolic Activation: HAMSTER, LIVER, S-9, AROCLOR 1254, Method: PREINCUBATION): inactive; negative; mutagenic call [2]: inactive; negative; mutagenic call (Test System: AMES SALMONELLA TYPHIMURIUM, Strain/Indicator: TA100, Metabolic Activation: RAT, LIVER, S-9, AROCLOR 1254, Method: PREINCUBATION): inactive; negative; mutagenic call (Test System: AMES SALMONELLA TYPHIMURIUM, Strain/Indicator: TA1535, Metabolic Activation: HAMSTER, LIVER, S-9, AROCLOR 1254, Method: PREINCUBATION): inactive; negative; mutagenic call [3]: inactive; negative; mutagenic call (Test System: AMES SALMONELLA TYPHIMURIUM, Strain/Indicator: TA1535, Metabolic Activation: RAT, LIVER, S-9, AROCLOR 1254, Method: PREINCUBATION): inactive; negative; mutagenic call (Test System: AMES SALMONELLA TYPHIMURIUM, Strain/Indicator: TA1537, Metabolic Activation: HAMSTER, LIVER, S-9, AROCLOR 1254, Method: PREINCUBATION): inactive; negative; mutagenic call [4]: inactive; negative; mutagenic call (Test System: AMES SALMONELLA TYPHIMURIUM, Strain/Indicator: TA1537, Metabolic Activation: RAT, LIVER, S-9, AROCLOR 1254, Method: PREINCUBATION): inactive; negative; mutagenic call (Test System: CHINESE HAMSTER OVARY CELLS, Strain/Indicator: CHO-K1-BH4 (HPRT)/6-THIOGUANINE, Metabolic Activation: NONE, Method: PREINCUBATION): inactive; negative; mutagenic call (Test System: CHINESE HAMSTER OVARY CELLS, Strain/Indicator: CHO-K1-BH4 (HPRT)/6-THIOGUANINE, Metabolic Activation: S-9, Method: PREINCUBATION): inactive; negative

Question: For `CCc1c(O)c(O)c2c(c1O)C(=O)C(O)=C(O)C2=O`, which mutagenic call (Test System: AMES SALMONELLA TYPHIMURIUM, Strain/Indicator: TA98, Metabolic Activation: MICROSOMAL FRACTION, FULLY ACTIVATED, AND RAT LIVER S-9, Method: STANDARD PLATE) is on record?
Answer: active; positive

Question: What about the mutagenic call (Test System: AMES SALMONELLA TYPHIMURIUM, Strain/Indicator: TA98, Metabolic Activation: MICROSOMAL FRACTION, NON-FULLY ACTIVATED, Method: STANDARD PLATE) of the same compound?
Answer: active; positive

Question: What about the mutagenic call (Test System: AMES SALMONELLA TYPHIMURIUM, Strain/Indicator: TA100, Metabolic Activation: MICROSOMAL FRACTION, FULLY ACTIVATED, AND RAT LIVER S-9, Method: STANDARD PLATE) of the same compound?
Answer: active; positive

Question: What about the mutagenic call (Test System: AMES SALMONELLA TYPHIMURIUM, Strain/Indicator: TA100, Metabolic Activation: MICROSOMAL FRACTION, NON-FULLY ACTIVATED, Method: STANDARD PLATE) of the same compound?
Answer: active; positive

Question: What about the mutagenic call (Test System: AMES SALMONELLA TYPHIMURIUM, Strain/Indicator: TA1537, Metabolic Activation: MICROSOMAL FRACTION, FULLY ACTIVATED, AND RAT LIVER S-9, Method: STANDARD PLATE) of the same compound?
Answer: active; positive

Question: And the mutagenic call (Test System: AMES SALMONELLA TYPHIMURIUM, Strain/Indicator: TA1537, Metabolic Activation: MICROSOMAL FRACTION, NON-FULLY ACTIVATED, Method: STANDARD PLATE)?
Answer: inactive; negative

Question: How did the mutagenic call [5] turn out when `CC(=O)Nc1ccc(Oc2ccc(N)cc2)cc1` was run?
Answer: inactive; negative

Question: What about the mutagenic call (Test System: AMES SALMONELLA TYPHIMURIUM, Strain/Indicator: TA98, Metabolic Activation: RAT, LIVER, S-9, PCB, Method: STANDARD PLATE) of the same compound?
Answer: active; positive

Question: What about the mutagenic call [6] of the same compound?
Answer: inactive; negative

Question: What about the mutagenic call (Test System: AMES SALMONELLA TYPHIMURIUM, Strain/Indicator: TA100, Metabolic Activation: RAT, LIVER, S-9, PCB, Method: STANDARD PLATE) of the same compound?
Answer: active; positive

Question: Which results are given for `CC(C)CC(NC(=O)COc1ccc(Cl)cc1Cl)C(=O)O` (configuration not stated)?
Answer: mutagenic call (Test System: AMES SALMONELLA TYPHIMURIUM, Strain/Indicator: TA97, Metabolic Activation: RAT, LIVER, S-9, AROCLOR 1254, Method: STANDARD PLATE): inactive; negative; mutagenic call (Test System: AMES SALMONELLA TYPHIMURIUM, Strain/Indicator: TA97, Metabolic Activation: WOODCHUCK, LIVER, S-9, 3-METHYLCHOLANTHRENE, Method: STANDARD PLATE): inactive; negative; mutagenic call (Test System: AMES SALMONELLA TYPHIMURIUM, Strain/Indicator: TA98, Metabolic Activation: RAT, LIVER, S-9, AROCLOR 1254, Method: STANDARD PLATE): inactive; negative; mutagenic call (Test System: AMES SALMONELLA TYPHIMURIUM, Strain/Indicator: TA98, Metabolic Activation: WOODCHUCK, LIVER, S-9, 3-METHYLCHOLANTHRENE, Method: STANDARD PLATE): inactive; negative; mutagenic call (Test System: AMES SALMONELLA TYPHIMURIUM, Strain/Indicator: TA100, Metabolic Activation: RAT, LIVER, S-9, AROCLOR 1254, Method: STANDARD PLATE): inactive; negative; mutagenic call (Test System: AMES SALMONELLA TYPHIMURIUM, Strain/Indicator: TA100, Metabolic Activation: WOODCHUCK, LIVER, S-9, 3-METHYLCHOLANTHRENE, Method: STANDARD PLATE): inactive; negative; mutagenic call (Test System: AMES SALMONELLA TYPHIMURIUM, Strain/Indicator: TA1535, Metabolic Activation: RAT, LIVER, S-9, AROCLOR 1254, Method: STANDARD PLATE): inactive; negative; mutagenic call (Test System: AMES SALMONELLA TYPHIMURIUM, Strain/Indicator: TA1535, Metabolic Activation: WOODCHUCK, LIVER, S-9, 3-METHYLCHOLANTHRENE, Method: STANDARD PLATE): inactive; negative; mutagenic call (Test System: AMES SALMONELLA TYPHIMURIUM, Strain/Indicator: TA1538, Metabolic Activation: RAT, LIVER, S-9, AROCLOR 1254, Method: STANDARD PLATE): inactive; negative; mutagenic call (Test System: AMES SALMONELLA TYPHIMURIUM, Strain/Indicator: TA1538, Metabolic Activation: WOODCHUCK, LIVER, S-9, 3-METHYLCHOLANTHRENE, Method: STANDARD PLATE): inactive; negative

Question: How did the mutagenic call (Test System: AMES SALMONELLA TYPHIMURIUM, Strain/Indicator: TA98, Metabolic Activation: HAMSTER, LIVER, S-9, AROCLOR 1254 (10%), Method: PREINCUBATION) turn out when `O=P(Oc1ccccc1)(Oc1ccccc1)Oc1ccccc1` was run?
Answer: inactive; negative

Question: What about the mutagenic call [1] of the same compound?
Answer: inactive; negative

Question: And the mutagenic call (Test System: AMES SALMONELLA TYPHIMURIUM, Strain/Indicator: TA98, Metabolic Activation: RAT, LIVER, S-9, AROCLOR 1254 (10%), Method: PREINCUBATION)?
Answer: inactive; negative

Question: What about the mutagenic call (Test System: AMES SALMONELLA TYPHIMURIUM, Strain/Indicator: TA100, Metabolic Activation: HAMSTER, LIVER, S-9, AROCLOR 1254 (10%), Method: PREINCUBATION) of the same compound?
Answer: inactive; negative

Question: What about the mutagenic call [2] of the same compound?
Answer: inactive; negative

Question: And the mutagenic call (Test System: AMES SALMONELLA TYPHIMURIUM, Strain/Indicator: TA100, Metabolic Activation: RAT, LIVER, S-9, AROCLOR 1254 (10%), Method: PREINCUBATION)?
Answer: inactive; negative

Question: And the mutagenic call (Test System: AMES SALMONELLA TYPHIMURIUM, Strain/Indicator: TA1535, Metabolic Activation: HAMSTER, LIVER, S-9, AROCLOR 1254 (10 OR 50%), Method: PREINCUBATION)?
Answer: inactive; negative

Question: What about the mutagenic call [3] of the same compound?
Answer: inactive; negative

Question: And the mutagenic call (Test System: AMES SALMONELLA TYPHIMURIUM, Strain/Indicator: TA1535, Metabolic Activation: RAT, LIVER, S-9, AROCLOR 1254 (10%), Method: PREINCUBATION)?
Answer: inactive; negative

Question: What about the mutagenic call (Test System: AMES SALMONELLA TYPHIMURIUM, Strain/Indicator: TA1537, Metabolic Activation: HAMSTER, LIVER, S-9, AROCLOR 1254 (10 OR 50%), Method: PREINCUBATION) of the same compound?
Answer: inactive; negative

Question: What about the mutagenic call [4] of the same compound?
Answer: inactive; negative

Question: And the mutagenic call (Test System: AMES SALMONELLA TYPHIMURIUM, Strain/Indicator: TA1537, Metabolic Activation: RAT, LIVER, S-9, AROCLOR 1254 (10%), Method: PREINCUBATION)?
Answer: inactive; negative

Question: What does the source list for `COc1cccc(/C=C/c2ccc(N)cc2)c1`?
Answer: mutagenic call (Test System: AMES SALMONELLA TYPHIMURIUM, Strain/Indicator: TA98(1,8-DNP6), Metabolic Activation: NONE, Method: STANDARD PLATE): inactive; negative; mutagenic call (Test System: AMES SALMONELLA TYPHIMURIUM, Strain/Indicator: TA98(1,8-DNP6), Metabolic Activation: S-9, Method: STANDARD PLATE): active; positive; mutagenic call [5]: active; positive; mutagenic call (Test System: AMES SALMONELLA TYPHIMURIUM, Strain/Indicator: TA98, Metabolic Activation: S-9, Method: STANDARD PLATE): active; positive; mutagenic call [6]: inactive; negative; mutagenic call (Test System: AMES SALMONELLA TYPHIMURIUM, Strain/Indicator: TA100, Metabolic Activation: S-9, Method: STANDARD PLATE): active; positive
